Molecular target: T1, Mitogen-activated protein kinase kinase kinase 5 (Homo sapiens, UniProt Q99683)
T1 sequence (Q99683 whole entry): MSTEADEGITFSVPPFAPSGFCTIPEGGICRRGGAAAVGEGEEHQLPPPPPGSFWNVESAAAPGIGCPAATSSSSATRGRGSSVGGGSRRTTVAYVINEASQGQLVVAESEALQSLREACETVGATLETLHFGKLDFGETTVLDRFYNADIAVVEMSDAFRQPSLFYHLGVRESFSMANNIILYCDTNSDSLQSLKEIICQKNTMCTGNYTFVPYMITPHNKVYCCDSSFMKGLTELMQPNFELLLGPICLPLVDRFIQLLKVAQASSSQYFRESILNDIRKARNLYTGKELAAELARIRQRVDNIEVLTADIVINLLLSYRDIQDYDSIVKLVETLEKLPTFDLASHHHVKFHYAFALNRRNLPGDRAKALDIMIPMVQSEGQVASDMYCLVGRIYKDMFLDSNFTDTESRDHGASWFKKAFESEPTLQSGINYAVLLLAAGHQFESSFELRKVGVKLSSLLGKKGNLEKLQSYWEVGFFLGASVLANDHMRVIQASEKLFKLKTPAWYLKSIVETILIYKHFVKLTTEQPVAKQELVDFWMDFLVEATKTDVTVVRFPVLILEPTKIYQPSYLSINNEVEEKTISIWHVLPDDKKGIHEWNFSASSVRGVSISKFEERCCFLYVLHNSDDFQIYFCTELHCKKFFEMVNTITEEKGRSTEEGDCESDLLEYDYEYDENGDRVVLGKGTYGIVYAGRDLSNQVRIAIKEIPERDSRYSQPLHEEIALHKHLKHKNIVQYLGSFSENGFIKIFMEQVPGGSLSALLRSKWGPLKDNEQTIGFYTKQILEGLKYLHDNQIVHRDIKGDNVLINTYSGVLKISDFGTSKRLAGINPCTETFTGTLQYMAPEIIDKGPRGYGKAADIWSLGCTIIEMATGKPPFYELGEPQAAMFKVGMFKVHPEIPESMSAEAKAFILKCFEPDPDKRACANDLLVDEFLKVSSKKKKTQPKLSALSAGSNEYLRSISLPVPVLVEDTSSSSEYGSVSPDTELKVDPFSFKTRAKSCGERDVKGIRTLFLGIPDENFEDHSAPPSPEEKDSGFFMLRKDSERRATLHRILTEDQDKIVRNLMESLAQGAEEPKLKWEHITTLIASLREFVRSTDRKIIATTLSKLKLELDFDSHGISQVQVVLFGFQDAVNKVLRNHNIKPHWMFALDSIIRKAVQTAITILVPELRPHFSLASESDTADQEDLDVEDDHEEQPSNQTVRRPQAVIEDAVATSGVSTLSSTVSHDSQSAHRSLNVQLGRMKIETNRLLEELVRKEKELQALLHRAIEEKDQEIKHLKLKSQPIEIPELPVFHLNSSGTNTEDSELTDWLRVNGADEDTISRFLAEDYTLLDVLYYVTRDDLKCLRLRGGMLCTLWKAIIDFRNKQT
Assay: HTRF KinEASE Assay : HTRF KinEASE-STK is a generic method for measuring serine/threonine kinase activities using a time-resolved fluorescence resonance energy transfer (TR-FRET) immunoassay. The IC50 value for each compound was determined in the presence of compound (various concentration from 0 to 10 μM) and a fixed amount of ATP and peptide substrates. The test compound, 1 Um STK3 peptide substrate, and 5 Nm of ASK1 kinase are incubated with kinase reaction buffer containing 50 Mm HEPES Ph 7.5, 0.01% BRIJ-35, 10 Mm MgCl2, and 1 Mm EGTA for 30 minutes. 100 Um ATP is added to start kinase reaction and incubated for 3 hours. The STK3-antibody labeled with Eu3+-Cryptate and 125 Nm streptavidin-XL665 are mixed in a single addition with stop reagents provided by the Cisbio kit used to stop the kinase reaction. Fluorescence is detected using an Envision Multilabeled 2014 reader from PerkinElmer. The Fluorescence is measured at 615 nm (Cryptate) and 665 nm (XL665) and a ratio of 665 nm/615 nm is calculated for each well.

## CCOC(=O)N1Cc2cnc(C(=O)Nc3cccc(-c4nncn4C(C)C)n3)cc2C1
  IC50: 10 to 100 nM
